Patent publication US20100189802A1, “Method for treatment of vascular hyperpermeability” (Scott and White Memorial Hospital and Scott, Sherwood, and …, priority 2007, published 2010)

B1: Angiopoietin-1: an endothelial cell growth factor (protein, UniProt Q15389 16-498, looked up)
Angiopoietin-1: HIGCSNQRRSPENSGRRYNRIQHGQCAYTFILPEHDGNCRESTTDQYNTNALQRDAPHVEPDFSSQKLQHLEHVMENYTQWLQKLENYIVENMKSEMAQIQQNAVQNHTATMLEIGTSLLSQTAEQTRKLTDVETQVLNQTSRLEIQLLENSLSTYKLEKQLLQQTNEILKIHEKNSLLEHKILEMEGKHKEELDTLKEEKENLQGLVTRQTYIIQELEKQLNRATTNNSVLQKQQLELMDTVHNLVNLCTKEGVLLKGGKREEEKPFRDCADVYQAGFNKSGIYTIYINNMPEPKKVFCNMDVNGGGWTVIQHREDGSLDFQRGWKEYKMGFGNPSGEYWLGNEFIFAITSQRQYMLRIELMDWEGNRAYSQYDRFHIGNEKQNYRLYLKGHTGTAGKQSSLILHGADFSTKDADNDNCMCKCALMLTGGWWFDACGPSNLNGMFYTAGQNHGKLNGIKWHYFKGPSYSLRSTTMMIRPLDF

What was measured:
Sprague-Dawley rats = assay: Hemorrhagic shock-induced vascular hyperpermeability: FITC-albumin flux in mesenteric postcapillary venules by intravital microscopy; format: in vivo, rat
Text: For example, in an embodiment of the invention disclosed herein, Sprague-Dawley rats were anesthetized with urethane. Hemorrhagic shock was induced in the anesthetized rats by withdrawing blood to reduce the mean arterial pressure to 40 mm Hg for one hour. The rats were then resuscitated to 90 mmHg by administration of the shed blood and normal saline. Albumin labeled with fluorescein isothiocyanate (FITC) was given intravenously during the period in which shock was present. The mesenteric postcapillary venules in a transilluminated segment of small intestine were examined to quantitate changes in albumin flux using intravital microscopy.

endothelial cells = conditions: traumatized animals, hemorrhagic shock; Childs et al. 2008; cited from earlier work

Molecule | vascular hyperpermeability induced by hemorrhagic shock-induced apoptosis (Sprague-Dawley rats; alpha-lipoic acid administered to traumatized animals) | vascular hyperpermeability (Sprague-Dawley rats; alpha-lipoic acid, about 100 mg/kg, before the onset of hemorrhagic shock) | vascular hyperpermeability (Sprague-Dawley rats; alpha-lipoic acid, about 100 mg/kg, within 60 minutes after the development of hemorrhagic shock) | vascular hyperpermeability (Sprague-Dawley rats; angiopoietin-1 intravenously, 200 ng/ml, traumatized animals) | vascular hyperpermeability and apoptosis (endothelial cells)
O=C(O)CCCCC1CCSS1 (stereo not drawn) [Alpha-lipoic acid, alpha-lipoic acid] | attenuated the amount of vascular hyperpermeability | effective in reducing the amount of vascular hyperpermeability | effective in reducing the amount of vascular hyperpermeability | – | –
B1 | – | – | – | attenuated the amount of vascular hyperpermeability | potent inhibitor of vascular hyperpermeability and apoptosis
